Reference: US9133232B2, “Fused pentacyclic polyethers” (priority 2003, dated 2015)
Where two headings read alike, the source gives them in different places.

Columns and labels:
rat brain synaptosome = assay: Competitive rat brain synaptosome assay (displacement of tritiated brevetoxin PbTx-2); type: binding; conditions: for Ki / EC50: competition with tritiated PbTx-2; for EC50: read-out: approximate EC50; for displacement of tritiated brevetoxin PbTx-2: compound added at about 1000× the concentration of the tritiated PbTx-2
Method: Competitive rat brain synaptosome assays were performed as described in Poli et al., 1986. […];

Male mosquito fish = type: in vivo; conditions: for death of fish exposed to brevenal alone: monitored 24 h
Method: Male mosquito fish (n=104) were used in this assay. Fish were placed individually in 50 mL beakers containing 20 mL water. The test compounds (PbTx-2 and brevenal) were dissolved in EtOH at a concentration of 0.1 mg/mL and added to the fish in a total of 200 μL EtOH. The control fish received 200 uL EtOH. Fish were exposed to toxin alone (1 μg/mL water), brevenal alone (1 or 2 μg/mL water), or both brevenal (1.0 μg/mL water and toxin (1.0 μg/mL water) with the brevenal being added 3 min. before the toxin. After addition of the difference compounds the fish were monitored for 24 h. or until the time of death. Significant differences were determined using a two-way Student's t-test.

Row | Compound | Ki (rat brain synaptosome) | EC50 (rat brain synaptosome) | displacement of tritiated brevetoxin PbTx-2 (rat brain synaptosome) | time of death after exposure, fish given brevenal and PbTx-2 (Male mosquito fish; brevenal 1.0 μg/mL water added 3 min. before PbTx-2 1.0 μg/mL water) | prolonging of life versus PbTx-2 only (Male mosquito fish; brevenal 1.0 μg/mL water added 3 min. before an equal concentration of PbTx-2) | death of fish exposed to brevenal alone (Male mosquito fish; brevenal alone 1 μg/ml water) | death of fish exposed to brevenal alone (Male mosquito fish; brevenal alone 2 μg/ml water)
1 | di-O-Me brevenal | 680 nM | ~1350 nM | ~80% | – | – | – | –
2 | C=C/C=C\CC[C@H]1O[C@H]2CC[C@@]3(C)O[C@H]4[C@@H](O)C[C@@]5(C)O[C@@H](CC/C=C(C)/C(C)=C/C=O)[C@@H](C)C[C@@H]5O[C@@H]4C[C@@H]3O[C@@H]2CC[C@@]1(C)O [brevenal] | 1860 nM | ~3690 nM | ~80% | about 17 min. | ~2.5 fold | did not die after 24 h | did not die after 24 h
